Target: human KOR receptor (Homo sapiens, UniProt P41145)
Assay: IP-One HTRF assay, potency of KOR agonists, dose-response in transiently transfected COS-7 cells
Format: cell-based

Sequence of human KOR receptor (P41145 whole entry): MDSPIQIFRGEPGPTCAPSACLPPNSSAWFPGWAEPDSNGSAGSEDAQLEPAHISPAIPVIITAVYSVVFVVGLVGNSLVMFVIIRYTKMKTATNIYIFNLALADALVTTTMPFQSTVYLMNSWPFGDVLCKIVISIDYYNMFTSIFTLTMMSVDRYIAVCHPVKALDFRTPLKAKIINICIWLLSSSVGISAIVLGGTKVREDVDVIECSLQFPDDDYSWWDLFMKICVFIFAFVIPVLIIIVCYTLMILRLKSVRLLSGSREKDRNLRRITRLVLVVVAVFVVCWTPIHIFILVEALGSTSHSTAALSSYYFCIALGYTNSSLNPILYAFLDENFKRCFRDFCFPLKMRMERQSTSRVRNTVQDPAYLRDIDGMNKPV

In the case of CCN(CC)C(=O)c1cccc([C@@H](CN2CC[C@H](O)C2)N(C)C(=O)Cc2ccc3c(c2)NS(=O)(=O)C3)c1 [Example 208, 3-((S)-1-(2-(2,2-dioxido-1,3-dihydrobenzo[c]isothiazol-6-yl)-N-methylacetamido)-2-((S)-3-hydroxypyrrolidin-1-yl)ethyl)-N,N-diethylbenzamide], the EC50 is reported as at most 50 nM.
With CCN(CC)C(=O)c1cccc([C@@H](CN2CC[C@H](O)C2)N(C)C(=O)Cc2ccc3ncc(=O)[nH]c3c2)c1 [Example 209, N,N-diethyl-3-((S)-2-((S)-3-hydroxypyrrolidin-1-yl)-1-(N-methyl-2-(3-oxo-3,4-dihydroquinoxalin-6-yl)acetamido)ethyl)benzamide 2,2,2-trifluoroacetate] the EC50 was at most 50 nM.
For CN(C)C(=O)c1cccc([C@@H](CN2CC[C@H](O)C2)N(C)C(=O)Cc2ccc3c(c2)NS(=O)(=O)C3)c1 [Example 210, 3-((S)-1-(2-(2,2-dioxido-1,3-dihydrobenzo[c]isothiazol-6-yl)-N-methylacetamido)-2-((S)-3-hydroxypyrrolidin-1-yl)ethyl)-N,N-dimethylbenzamide], the EC50 was at most 50 nM.
For CN(C)C(=O)c1cccc([C@@H](CN2CC[C@H](O)C2)N(C)C(=O)Cc2ccc3ncc(=O)[nH]c3c2)c1 [Example 211, 3-((S)-2-((S)-3-hydroxypyrrolidin-1-yl)-1-(N-methyl-2-(3-oxo-3,4-dihydroquinoxalin-6-yl)acetamido)ethyl)-N,N-dimethylbenzamide], the EC50 was at most 50 nM.
With CN(C(=O)Cc1ccc2c(c1)NC(=O)CS2(=O)=O)[C@H](CN1CC[C@H](O)C1)c1cccc(-c2ncon2)c1 [Example 212, N-((S)-1-(3-(1,2,4-oxadiazol-3-yl)phenyl)-2-((S)-3-hydroxypyrrolidin-1-yl)ethyl)-2-(1,1-dioxido-3-oxo-3,4-dihydro-2H-benzo[b][1,4]thiazin-6-yl)-N-methylacetamide2,2,2-trifluoroacetate] the EC50 was at most 50 nM.
CN(C(=O)Cc1ccc2c(c1)NC(=O)C2)[C@H](CN1CC[C@H](O)C1)c1cccc(-c2nccn2C)c1 [Example 213, N-((S)-2-((S)-3-hydroxypyrrolidin-1-yl)-1-(3-(1-methyl-1H-imidazol-2-yl)phenyl)ethyl)-N-methyl-2-(2-oxoindolin-6-yl)acetamide] gave an EC50 of at most 50 nM.
CCc1nc(-c2cccc([C@@H](CN3CC[C@H](O)C3)N(C)C(=O)Cc3ccc4c(c3)NC(=O)C4)c2)no1 [Example 214, N-((S)-1-(3-(5-ethyl-1,2,4-oxadiazol-3-yl)phenyl)-2-((S)-3-hydroxypyrrolidin-1-yl)ethyl)-N-methyl-2-(2-oxoindolin-6-yl)acetamide] was tested, and the EC50 was at most 50 nM.
For Cc1cnc(-c2cccc([C@@H](CN3CC[C@H](O)C3)N(C)C(=O)Cc3ccc4c(c3)NC(=O)C4)c2)s1 [Example 215, N-((S)-2-((S)-3-hydroxypyrrolidin-1-yl)-1-(3-(5-methylthiazol-2-yl)phenyl)ethyl)-N-methyl-2-(2-oxoindolin-6-yl)acetamide], the EC50 was at most 50 nM.
Work on CN(C(=O)Cc1ccc2c(c1)NC(=O)C2)[C@H](CN1CC[C@H](O)C1)c1cccc(-c2cncs2)c1 [Example 216, N-((S)-2-((S)-3-hydroxypyrrolidin-1-yl)-1-(3-(thiazol-5-yl)phenyl)ethyl)-N-methyl-2-(2-oxoindolin-6-yl)acetamide] yielded an EC50 of at most 50 nM.
Molecule CN(C(=O)Cc1ccc2c(c1)NC(=O)C2)[C@H](CN1CC[C@H](O)C1)c1cccc(-c2cscn2)c1 [Example 217, N-((S)-2-((S)-3-hydroxypyrrolidin-1-yl)-1-(3-(thiazol-4-yl)phenyl)ethyl)-N-methyl-2-(2-oxoindolin-6-yl)acetamide] has an EC50 of at most 50 nM.
In the case of Cc1csc(-c2cccc([C@@H](CN3CC[C@H](O)C3)N(C)C(=O)Cc3ccc4c(c3)NC(=O)C4)c2)n1 [Example 218, N-((S)-2-((S)-3-hydroxypyrrolidin-1-yl)-1-(3-(4-methylthiazol-2-yl)phenyl)ethyl)-N-methyl-2-(2-oxoindolin-6-yl)acetamide], the EC50 is reported as at most 50 nM.
Molecule Cc1ncc(-c2cccc([C@@H](CN3CC[C@H](O)C3)N(C)C(=O)Cc3ccc4c(c3)NC(=O)C4)c2)s1 [Example 219, N-((S)-2-((S)-3-hydroxypyrrolidin-1-yl)-1-(3-(2-methylthiazol-5-yl)phenyl)ethyl)-N-methyl-2-(2-oxoindolin-6-yl)acetamide] has an EC50 of at most 50 nM.
With Cc1nc(-c2cccc([C@@H](CN3CC[C@H](O)C3)N(C)C(=O)Cc3ccc4c(c3)NC(=O)C4)c2)cs1 [Example 220, N-((S)-2-((S)-3-hydroxypyrrolidin-1-yl)-1-(3-(2-methylthiazol-4-yl)phenyl)ethyl)-N-methyl-2-(2-oxoindolin-6-yl)acetamide] the EC50 was at most 50 nM.
In the case of Cc1nnc(-c2cccc([C@@H](CN3CC[C@H](O)C3)N(C)C(=O)Cc3ccc4c(c3)NC(=O)C4)c2)s1 [Example 221, N-((S)-2-((S)-3-hydroxypyrrolidin-1-yl)-1-(3-(5-methyl-1,3,4-thiadiazol-2-yl)phenyl)ethyl)-N-methyl-2-(2-oxoindolin-6-yl)acetamide], the EC50 is reported as at most 50 nM.
CN(C(=O)Cc1ccc2c(c1)NC(=O)C2)[C@H](CN1CC[C@H](O)C1)c1cccc(-c2cncn2C)c1 [Example 222, N-((S)-2-((S)-3-hydroxypyrrolidin-1-yl)-1-(3-(1-methyl-1H-imidazol-5-yl)phenyl)ethyl)-N-methyl-2-(2-oxoindolin-6-yl)acetamide] was tested, and the EC50 was at most 50 nM.
CN(C(=O)Cc1ccc2c(c1)NC(=O)C2)[C@H](CN1CC[C@H](O)C1)c1cccc(-c2nnco2)c1 [Example 223, N-((S)-1-(3-(1,3,4-oxadiazol-2-yl)phenyl)-2-((S)-3-hydroxypyrrolidin-1-yl)ethyl)-N-methyl-2-(2-oxoindolin-6-yl)acetamide] gave an EC50 of at most 50 nM.
With Cc1nnc(-c2cccc([C@@H](CN3CC[C@H](O)C3)N(C)C(=O)Cc3ccc4c(c3)NC(=O)C4)c2)o1 [Example 224, N-((S)-2-((S)-3-hydroxypyrrolidin-1-yl)-1-(3-(5-methyl-1,3,4-oxadiazol-2-yl)phenyl)ethyl)-N-methyl-2-(2-oxoindolin-6-yl)acetamide] the EC50 was at most 50 nM.
For CN(C(=O)Cc1ccc2c(c1)NC(=O)C2)[C@H](CN1CC[C@H](O)C1)c1cccc(-c2cn(C)cn2)c1 [Example 225, N-((S)-2-((S)-3-hydroxypyrrolidin-1-yl)-1-(3-(1-methyl-1H-imidazol-4-yl)phenyl)ethyl)-N-methyl-2-(2-oxoindolin-6-yl)acetamide], the EC50 was at most 50 nM.
Work on CN(C(=O)Cc1ccc2c(c1)NC(=O)C2)[C@H](CN1CC[C@H](O)C1)c1cccc(-c2nccn2CC2CC2)c1 [Example 226, N-((S)-1-(3-(1-(cyclopropylmethyl)-1H-imidazol-2-yl)phenyl)-2-((S)-3-hydroxypyrrolidin-1-yl)ethyl)-N-methyl-2-(2-oxoindolin-6-yl)acetamide] yielded an EC50 of at most 50 nM.
For Cc1noc(-c2cccc([C@@H](CN3CC[C@H](O)C3)N(C)C(=O)Cc3ccc4c(c3)NC(=O)C4)c2)n1 [Example 227, N-((S)-2-((S)-3-hydroxypyrrolidin-1-yl)-1-(3-(3-methyl-1,2,4-oxadiazol-5-yl)phenyl)ethyl)-N-methyl-2-(2-oxoindolin-6-yl)acetamide], the EC50 was at most 50 nM.

— US9487510B2, “Substituted heterocyclic acetamides as kappa opioid receptor (KOR) agonists” (Dr. Reddy's Laboratories Ltd., priority 2012, dated 2016)
